These are literature values, as cited in patent US20170173097A1, “COMPOSITIONS FOR ENHANCING DETOXIFICATION AND USES THEREOF” (Specialty Nutrition Group, Inc., priority 2014, published 2017).

Read-outs that look alike come from different tables or passages of the source.

The test system of this data set is beta-glucuronidase.

In the case of `O=C([O-])[C@@H](O)[C@@H](O)[C@H](O)[C@@H](O)C(=O)[O-].[Ca+2]` [calcium D-glucarate], the inhibition of beta-glucuronidase runs as follows: (in the blood) 57%; (in the intestines) 39%; (in the liver) 44%; (in the lungs) 37%.
